Assay results: patent US20250092017A1, “2-PIPERIDYL OR 2-PYRAZOLYL SUBSTITUTED PYRIMIDINE COMPOUND SERVING AS EGFR INHIBITOR” (SUZHOU PUHE BIOPHARMA CO., LTD., priority 2022, published 2025)

Experiments:
Ba/F3-FL-EGFR = target: T1, Ba/F3-FL-EGFR (Homo sapiens, UniProt P00533); test: CellTiter-Glo proliferation, Ba/F3-FL-EGFR; assay type: cell-based; conditions: 72 hours, read-out: Ba/F3-FL-EGFR IC50/nM
T1 construct: FL read as full length
How it was run: (§1)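 Ba/F3 lines dependent on the indicated EGFR variants were treated with compounds at a final DMSO concentration of 0.1% at 37 °C, 5% CO2. Viability was read by CellTiter-Glo luminescence, and inhibition rate was normalised to DMSO-treated cells (max) and medium-only wells (min). IC50 came from inhibition curves.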

Ba/F3-FL-EGFR-L858R = Ba/F3-FL-EGFR-L858R (Homo sapiens, UniProt P00533, L858R, cells depend on it); test: CellTiter-Glo proliferation, Ba/F3-FL-EGFR-L858R; assay type: cell-based; conditions: 72 hours, read-out: Ba/F3-FL-EGFR-L858R IC50/nM
How it was run: as §1

[1] = target: T2, Ba/F3-TEL-EGFR-L858R-C797S (Homo sapiens, UniProt P00533, C797S/L858R, cells depend on it); test: CellTiter-Glo proliferation, Ba/F3-TEL-EGFR-L858R-C797S; assay type: cell-based; conditions: 72 hours, read-out: Ba/F3-TEL-EGFR-L858R-C797S IC50/nM
T2 construct: fused on or other part: N-terminal TEL (ETV6) oligomerising part fused to the EGFR intracellular/kinase part; P41212 (Transcription factor ETV6)
How it was run: as §1

[2] = target: Ba/F3-FL-EGFR-L858R-T790M-C797S (Homo sapiens, UniProt P00533, T790M/C797S/L858R, cells depend on it); test: CellTiter-Glo proliferation, Ba/F3-FL-EGFR-L858R-T790M-C797S; assay type: cell-based; conditions: 72 hours, read-out: Ba/F3-FL-EGFR-L858R-T790M-C797S IC50/nM
How it was run: as §1

[3] = test system: Ba/F3-FL-EGFR-del19-C797S; test: CellTiter-Glo proliferation, Ba/F3-FL-EGFR-del19-C797S; assay type: cell-based; conditions: 72 h, proliferation, 72 hours, CellTiter-Glo; read-out: Ba/F3-FL-EGFR-del19-C797S IC50/nM
How it was run: as §1

[4] = target: Ba/F3-FL-EGFR-del19-T790M-C797S (Homo sapiens, UniProt P00533, DEL746-750/T790M/C797S, cells depend on it); test: CellTiter-Glo proliferation, Ba/F3-FL-EGFR-del19-T790M-C797S; assay type: cell-based; conditions: 72 hours, read-out: Ba/F3-FL-EGFR-del19-T790M-C797S IC50/nM
Protocol: Promega CellTiter-Glo reagent was used to detect the effects of small molecule inhibitors on the proliferation of three Ba/F3 cell lines (Ba/F3-FL-EGFR-de119, Ba/F3-FL-EGFR-de119-T790M, Ba/F3-FL-EGFR-de119-T790M-C797S).
The cell lines were cultured in an incubator at 37° C. and 5% CO2. Cells were passaged regularly and cells in the logarithmic phase were used for plating. 95 μL of cell suspension was added to each well of the cell plate, and culture medium without cells (containing 0.1% DMSO) was added to the Min control wells. Substance addition for compound detection cell plate: 5 μL of 20× compound working solution was added to the cell culture plate. 5 μL of DMSO-cell culture medium mixture was added to the Max control, with the final DMSO concentration of 0.1%. 5 μL of DMSO-cell culture medium mixture was added to the Max control. The final DMSO concentration was 0.1%.
Cell viability was detected by CellTiter-Glo luminescence assay. Data analysis:
The cell proliferation inhibition rate (Inhibition Rate) data was processed using the following formula: […]
wherein: RLUDrug represents the relative luminescence unit of the cells with the addition of drug, RLUMin represents the luminescence unit of the culture medium, and RLUMax represents the relative luminescence unit of the cells with the addition of DMSO.
The inhibition rates corresponding to different concentrations of compounds were calculated in EXCEL, and then the inhibition rate curve was plotted using GraphPad Prism software and related parameters including the maximum and minimum inhibition rates of cells and IC50 values were calculated.

[5] = target: Ba/F3-FL-EGFR-Del19 (E746-A750) (Homo sapiens, UniProt P00533, DEL746-750, cells depend on it); test: CellTiter-Glo proliferation, Ba/F3-FL-EGFR-Del19; conditions: read-out: Ba/F3-FL-EGFR-Del19 (E746-A750), 72 hours
[6] = target: Ba/F3-FL-EGFR-del19/T790M (Homo sapiens, UniProt P00533, DEL746-750/T790M, cells depend on it); test: CellTiter-Glo proliferation, Ba/F3-FL-EGFR-del19/T790M; conditions: read-out: Ba/F3-FL-EGFR-del19/T790M IC50/nM, 72 hours
[7] = Liver microsome stability test, human; assay type: in vitro ADME; conditions: human liver microsomes 0.5 mg/ml, compound 1 μM, NADPH 1 mM, within 60 minutes
Protocol: (§2) The compounds of the present disclosure were subjected to a liver microsome stability test. The compounds to be tested were co-incubated with liver microsomes of different species with or without the addition of NADPH. The final concentration of the compounds to be tested in the test system was 1 μM. The final concentration of NADPH was 1 mM, and the final concentration of liver microsomes was 0.5 mg/ml.

[8] = Liver microsome stability test, mouse; assay type: in vitro ADME; conditions: mouse liver microsomes 0.5 mg/ml, compound 1 μM, NADPH 1 mM, within 60 minutes
Protocol: as §2

[9] = test system: BaF3 (del19/T790M1C797S) tumor cells; test: In vivo efficacy assay in BALB/c nude mice, subcutaneous BaF3 tumor; conditions: for TGI: based on final tumor volume
Protocol: In vivo efficacy assay in BALB/c nude mice. Details were as follows:
BaF3 (del19/T790M1C797S) tumor cells were cultured and inoculated into 6-8 weeks old female BALB/c nude mice (weighing about 20 g), with all mice being subcutaneously inoculated. The mice were cultured in an SPF-grade experimental environment, and all mice had free access to commercially certified standard diets. When the average tumor volume of the mice grew to about 150 mm^3, the test compound was orally administered daily. The dosage was as follows: blank group vehicle (DMSO/Solutol/H2O, 5/10/85). […] The tumor volume was measured three times a week with a two-dimensional caliper, and the animals were weighed every day. […] The volume calculation formula is: V=1/2a*b^2, where a represents the long diameter of the tumor, and b represents the short diameter of the tumor.

[10] = 100 mg/kg BID oral (50 mg/kg for the first 4 days, 100 mg/kg from the 5th day), after 13 days

Chain of Ba/F3-FL-EGFR-L858R-T790M-C797S (P00533 whole entry T790M/C797S/L858R): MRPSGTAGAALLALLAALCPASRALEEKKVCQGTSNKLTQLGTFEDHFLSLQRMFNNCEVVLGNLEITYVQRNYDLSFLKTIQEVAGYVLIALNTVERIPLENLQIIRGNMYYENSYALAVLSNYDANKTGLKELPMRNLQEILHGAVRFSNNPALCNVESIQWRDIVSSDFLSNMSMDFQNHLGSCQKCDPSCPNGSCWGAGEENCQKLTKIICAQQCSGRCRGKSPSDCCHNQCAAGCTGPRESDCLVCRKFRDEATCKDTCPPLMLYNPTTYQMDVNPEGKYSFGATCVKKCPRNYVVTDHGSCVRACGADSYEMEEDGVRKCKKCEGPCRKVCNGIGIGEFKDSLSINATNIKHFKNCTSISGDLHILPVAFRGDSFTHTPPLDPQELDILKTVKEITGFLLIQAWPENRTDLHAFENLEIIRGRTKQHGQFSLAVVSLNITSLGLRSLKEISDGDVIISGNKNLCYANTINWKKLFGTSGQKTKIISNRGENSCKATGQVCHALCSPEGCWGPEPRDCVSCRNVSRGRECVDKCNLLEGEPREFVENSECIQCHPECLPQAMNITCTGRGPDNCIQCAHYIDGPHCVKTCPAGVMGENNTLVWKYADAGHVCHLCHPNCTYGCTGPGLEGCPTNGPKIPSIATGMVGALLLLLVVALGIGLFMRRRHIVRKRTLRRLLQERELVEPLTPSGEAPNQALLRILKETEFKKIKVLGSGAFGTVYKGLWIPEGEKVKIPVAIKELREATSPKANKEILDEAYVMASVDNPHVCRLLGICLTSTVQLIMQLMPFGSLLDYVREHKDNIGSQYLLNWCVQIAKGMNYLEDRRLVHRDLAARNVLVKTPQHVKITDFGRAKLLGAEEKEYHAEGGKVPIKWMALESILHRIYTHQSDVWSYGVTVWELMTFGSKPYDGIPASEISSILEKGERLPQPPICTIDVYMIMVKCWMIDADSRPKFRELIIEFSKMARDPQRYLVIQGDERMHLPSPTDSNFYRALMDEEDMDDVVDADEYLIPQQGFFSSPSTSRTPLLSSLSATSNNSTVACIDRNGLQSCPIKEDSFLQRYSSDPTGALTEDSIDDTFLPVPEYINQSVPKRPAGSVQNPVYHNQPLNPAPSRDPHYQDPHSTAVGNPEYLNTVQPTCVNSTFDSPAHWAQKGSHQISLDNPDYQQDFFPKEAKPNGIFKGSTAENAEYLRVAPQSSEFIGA
Chain of Ba/F3-FL-EGFR-del19/T790M (P00533 with tags, fused parts or gaps DEL746-750/T790M): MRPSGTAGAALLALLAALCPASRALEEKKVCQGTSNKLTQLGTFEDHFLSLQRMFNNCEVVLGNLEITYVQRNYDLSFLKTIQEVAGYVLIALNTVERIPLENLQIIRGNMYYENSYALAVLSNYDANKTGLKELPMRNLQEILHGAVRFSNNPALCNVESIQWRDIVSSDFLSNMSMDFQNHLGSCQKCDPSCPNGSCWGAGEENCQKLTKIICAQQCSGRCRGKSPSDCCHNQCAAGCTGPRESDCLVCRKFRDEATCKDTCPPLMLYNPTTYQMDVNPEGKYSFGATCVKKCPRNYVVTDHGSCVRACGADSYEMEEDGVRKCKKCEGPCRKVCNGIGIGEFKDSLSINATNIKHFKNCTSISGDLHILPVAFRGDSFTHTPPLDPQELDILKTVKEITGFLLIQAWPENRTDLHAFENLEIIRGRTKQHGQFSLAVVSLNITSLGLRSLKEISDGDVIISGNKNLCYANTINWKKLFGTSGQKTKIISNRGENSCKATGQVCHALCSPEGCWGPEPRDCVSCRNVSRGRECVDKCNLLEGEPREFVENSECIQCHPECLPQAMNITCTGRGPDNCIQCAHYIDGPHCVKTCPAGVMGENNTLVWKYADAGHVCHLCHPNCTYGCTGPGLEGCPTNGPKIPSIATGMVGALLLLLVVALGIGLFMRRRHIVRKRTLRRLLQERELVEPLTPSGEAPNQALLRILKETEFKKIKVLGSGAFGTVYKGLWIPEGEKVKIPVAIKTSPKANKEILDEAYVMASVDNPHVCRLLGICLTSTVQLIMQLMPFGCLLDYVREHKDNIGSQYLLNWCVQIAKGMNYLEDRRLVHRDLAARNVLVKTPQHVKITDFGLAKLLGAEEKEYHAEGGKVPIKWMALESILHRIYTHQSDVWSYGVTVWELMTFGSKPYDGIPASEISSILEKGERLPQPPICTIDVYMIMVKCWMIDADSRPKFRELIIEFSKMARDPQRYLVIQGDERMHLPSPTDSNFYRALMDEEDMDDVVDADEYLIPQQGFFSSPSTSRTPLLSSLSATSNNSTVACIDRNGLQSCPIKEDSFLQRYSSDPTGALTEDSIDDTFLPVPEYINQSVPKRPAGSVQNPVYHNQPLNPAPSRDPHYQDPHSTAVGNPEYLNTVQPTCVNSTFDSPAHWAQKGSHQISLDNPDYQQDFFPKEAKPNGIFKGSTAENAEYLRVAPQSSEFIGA
Chain of Ba/F3-FL-EGFR-L858R (P00533 whole entry L858R): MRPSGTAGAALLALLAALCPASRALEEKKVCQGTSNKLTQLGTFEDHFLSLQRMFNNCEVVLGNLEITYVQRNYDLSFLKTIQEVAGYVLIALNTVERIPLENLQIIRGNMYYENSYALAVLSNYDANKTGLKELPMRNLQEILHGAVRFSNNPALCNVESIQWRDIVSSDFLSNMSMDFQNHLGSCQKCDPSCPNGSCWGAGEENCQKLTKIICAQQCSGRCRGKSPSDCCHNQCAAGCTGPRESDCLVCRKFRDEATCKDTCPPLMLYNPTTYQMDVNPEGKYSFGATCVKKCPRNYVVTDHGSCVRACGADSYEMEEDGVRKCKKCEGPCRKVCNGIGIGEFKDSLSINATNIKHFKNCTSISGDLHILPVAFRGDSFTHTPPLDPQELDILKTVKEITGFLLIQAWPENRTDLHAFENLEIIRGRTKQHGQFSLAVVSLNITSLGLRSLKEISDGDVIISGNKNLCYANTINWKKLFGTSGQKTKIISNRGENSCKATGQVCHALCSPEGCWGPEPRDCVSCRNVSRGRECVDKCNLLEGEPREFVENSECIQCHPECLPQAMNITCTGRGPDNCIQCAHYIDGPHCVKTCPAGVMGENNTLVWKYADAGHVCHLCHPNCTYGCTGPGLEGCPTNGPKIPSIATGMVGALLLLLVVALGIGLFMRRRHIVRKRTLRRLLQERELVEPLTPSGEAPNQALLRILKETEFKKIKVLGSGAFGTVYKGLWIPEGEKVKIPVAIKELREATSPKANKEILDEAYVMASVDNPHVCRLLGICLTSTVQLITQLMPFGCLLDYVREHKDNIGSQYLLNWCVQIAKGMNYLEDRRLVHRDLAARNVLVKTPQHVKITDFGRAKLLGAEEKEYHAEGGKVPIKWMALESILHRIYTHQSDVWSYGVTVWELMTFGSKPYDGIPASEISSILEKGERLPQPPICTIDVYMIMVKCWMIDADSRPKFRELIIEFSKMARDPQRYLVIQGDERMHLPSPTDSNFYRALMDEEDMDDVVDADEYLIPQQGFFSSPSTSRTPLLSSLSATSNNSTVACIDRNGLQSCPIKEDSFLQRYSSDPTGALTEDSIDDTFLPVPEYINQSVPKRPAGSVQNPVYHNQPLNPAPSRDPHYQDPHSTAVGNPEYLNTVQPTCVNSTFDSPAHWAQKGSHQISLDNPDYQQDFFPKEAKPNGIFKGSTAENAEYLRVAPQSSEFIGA
Chain of Ba/F3-FL-EGFR-del19-T790M-C797S (P00533 with tags, fused parts or gaps DEL746-750/T790M/C797S): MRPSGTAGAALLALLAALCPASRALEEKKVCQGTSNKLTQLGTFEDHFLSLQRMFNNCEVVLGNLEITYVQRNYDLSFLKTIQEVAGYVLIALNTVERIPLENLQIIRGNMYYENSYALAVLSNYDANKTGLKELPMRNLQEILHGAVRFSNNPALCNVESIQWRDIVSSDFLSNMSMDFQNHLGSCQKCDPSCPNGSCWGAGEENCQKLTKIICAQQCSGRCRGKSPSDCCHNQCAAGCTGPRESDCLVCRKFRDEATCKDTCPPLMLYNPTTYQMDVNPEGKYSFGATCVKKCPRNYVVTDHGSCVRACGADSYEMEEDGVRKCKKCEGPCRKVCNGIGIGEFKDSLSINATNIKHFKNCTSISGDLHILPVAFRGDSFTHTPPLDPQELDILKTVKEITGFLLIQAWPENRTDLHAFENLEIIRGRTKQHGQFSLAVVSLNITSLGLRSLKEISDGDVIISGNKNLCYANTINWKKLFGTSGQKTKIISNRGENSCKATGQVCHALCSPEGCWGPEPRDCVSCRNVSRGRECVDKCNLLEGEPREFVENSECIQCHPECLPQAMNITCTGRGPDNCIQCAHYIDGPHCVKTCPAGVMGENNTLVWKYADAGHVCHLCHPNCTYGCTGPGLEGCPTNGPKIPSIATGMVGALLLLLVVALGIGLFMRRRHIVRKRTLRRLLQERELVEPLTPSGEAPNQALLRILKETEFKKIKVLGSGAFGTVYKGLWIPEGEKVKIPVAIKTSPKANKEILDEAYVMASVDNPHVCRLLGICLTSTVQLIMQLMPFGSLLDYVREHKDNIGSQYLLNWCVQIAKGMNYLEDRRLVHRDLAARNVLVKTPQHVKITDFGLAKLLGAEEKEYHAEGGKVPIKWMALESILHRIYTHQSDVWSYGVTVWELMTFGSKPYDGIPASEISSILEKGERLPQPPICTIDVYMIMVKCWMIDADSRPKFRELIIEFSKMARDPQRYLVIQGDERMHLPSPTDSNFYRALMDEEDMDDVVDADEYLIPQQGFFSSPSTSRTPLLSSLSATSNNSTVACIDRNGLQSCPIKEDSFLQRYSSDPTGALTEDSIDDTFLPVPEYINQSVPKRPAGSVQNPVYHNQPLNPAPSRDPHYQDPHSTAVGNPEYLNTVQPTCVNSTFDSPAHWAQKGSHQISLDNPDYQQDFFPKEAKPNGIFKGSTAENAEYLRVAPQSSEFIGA

SMILES | GI50 (Ba/F3-FL-EGFR) [nM] | GI50 (Ba/F3-FL-EGFR-L858R) [nM] | GI50 [1] [nM] | GI50 [2] [nM] | IC50 [3] [nM] | GI50 [4] [nM] | GI50 [5] [nM] | GI50 [6] [nM] | CLint scaled at 1 μM [7] [mL/min/kg] | CLint scaled at 1 μM [8] [mL/min/kg] | Tumor volume (mm^3) [9, 10] [mm^3] | TGI [9, 10] [%] | Tumor volume (mm^3) ([9]; 100 mg/kg, BID, oral, after 13 consecutive days of administration) | TGI ([9]; 100 mg/kg, BID, oral, after 13 consecutive days) [%]
CC(C)c1ccc(N2C[C@H](N(C)S(C)(=O)=O)[C@H]2C)c2cnc(Nc3ccnc(N4CC[C@H](O)[C@H](F)C4)n3)cc12 [Compound P41b] | 464 | 15 | 5.6 | 3.7 | 35 | 3.7 | 36 | 2.3 |  |  |  |  |  | 
CC(C)c1ccc(N2C[C@H](N(C)S(C)(=O)=O)[C@H]2C)c2cnc(Nc3ccnc(-c4cnn(S(=O)(=O)C5CC5)c4)n3)cc12 [Compound H23] | 121 | 3.7 | 4.3 | 10 | 3.1 | 3.1 | 3.1 | 0.3 | < 8.6 | 448 | 28 | 103 |  | 
CC(C)c1ccc(N2C[C@H](CS(C)(=O)=O)[C@H]2C)c2cnc(Nc3ccnc(-c4cnn(S(C)(=O)=O)c4)n3)cc12 [Compound H30] | 259 | 10 | 8.9 | 21 | 9.2 | 7.8 | 15 | 5.1 | 11.7 | 145 |  |  |  | 
CC(C)c1ccc(N2C[C@H](N(C)S(C)(=O)=O)[C@H]2C)c2cnc(Nc3ccnc(N4CC[C@@H](O)[C@@H](F)C4)n3)cc12 [Compound P41a] | 693 | 22 | 7.1 | 4.6 | 57 | 5.9 | 54 | 3.2 |  |  |  |  | 693 | 85
